Measurements as given in ChEMBL document CHEMBL4265943, “Design and synthesis of potent dual inhibitors of JAK2 and HDAC based on fusing the pharmacophores of XL019 and vorinostat” (Eur J Med Chem, 2018).
One block for each compound: values may come before it. Activity calls are given as the source filed them. No cut-off for these calls is given here.

How the values were obtained:
[1] = target: T1, Tyrosine-protein kinase JAK2 (Homo sapiens, UniProt O60674); experiment: Inhibition of human JAK2 using poly(Glu:Tyr)(4:1) as substrate preincubated for 20 mins followed by [gamma33P]ATP addition measured after 120 mins by ion exchange filter paper method
Histone deacetylase 1 = Histone deacetylase 1 (Homo sapiens, UniProt Q13547); experiment: Inhibition of HDAC1 (unknown origin) using Arg-His-Lys-Lys(Ac) as substrate preincubated with enzyme followed by substrate addition for 2 hrs and measured for 1.5 hrs at 15 mins time interval by fluorescence assay
[2] = target: T2, Protein deacetylase HDAC6 (Homo sapiens, UniProt Q9UBN7); experiment: Inhibition of HDAC6 (unknown origin) using Arg-His-Lys-Lys(Ac) as substrate preincubated with enzyme followed by substrate addition for 2 hrs and measured for 1.5 hrs at 15 mins time interval by fluorescence assay
T2 sequence (Q9UBN7 whole entry): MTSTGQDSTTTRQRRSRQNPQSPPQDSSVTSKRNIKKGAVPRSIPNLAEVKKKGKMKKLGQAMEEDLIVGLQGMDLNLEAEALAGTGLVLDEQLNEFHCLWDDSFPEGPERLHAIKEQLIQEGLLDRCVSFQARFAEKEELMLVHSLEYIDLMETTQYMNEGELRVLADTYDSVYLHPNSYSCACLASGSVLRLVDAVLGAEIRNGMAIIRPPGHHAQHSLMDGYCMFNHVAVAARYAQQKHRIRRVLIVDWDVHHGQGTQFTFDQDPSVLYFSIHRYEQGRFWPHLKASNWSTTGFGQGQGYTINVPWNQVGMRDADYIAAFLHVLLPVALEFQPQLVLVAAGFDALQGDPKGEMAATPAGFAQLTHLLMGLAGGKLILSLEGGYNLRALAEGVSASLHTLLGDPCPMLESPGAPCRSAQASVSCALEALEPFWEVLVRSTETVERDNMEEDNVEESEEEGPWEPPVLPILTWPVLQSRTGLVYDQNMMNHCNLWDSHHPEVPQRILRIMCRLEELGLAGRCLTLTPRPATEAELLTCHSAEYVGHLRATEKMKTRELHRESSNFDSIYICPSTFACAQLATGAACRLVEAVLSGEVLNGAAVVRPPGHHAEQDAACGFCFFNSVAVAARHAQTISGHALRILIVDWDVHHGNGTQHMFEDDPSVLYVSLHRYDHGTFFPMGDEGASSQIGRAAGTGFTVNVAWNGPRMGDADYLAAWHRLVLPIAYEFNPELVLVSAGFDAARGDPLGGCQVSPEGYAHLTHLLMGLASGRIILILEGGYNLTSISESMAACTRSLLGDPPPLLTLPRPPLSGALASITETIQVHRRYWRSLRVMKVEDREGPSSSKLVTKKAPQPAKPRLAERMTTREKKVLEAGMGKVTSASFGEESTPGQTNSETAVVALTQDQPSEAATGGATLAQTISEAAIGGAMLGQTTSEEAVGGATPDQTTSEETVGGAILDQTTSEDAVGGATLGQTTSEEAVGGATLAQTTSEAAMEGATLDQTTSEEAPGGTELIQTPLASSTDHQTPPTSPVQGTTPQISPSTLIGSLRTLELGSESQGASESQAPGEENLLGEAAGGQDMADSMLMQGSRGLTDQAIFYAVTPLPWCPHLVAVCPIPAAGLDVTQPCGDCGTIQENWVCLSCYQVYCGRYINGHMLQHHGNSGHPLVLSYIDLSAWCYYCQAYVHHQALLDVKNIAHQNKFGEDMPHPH

Homo sapiens = species on record: Homo sapiens; experiment: Selectivity ratio of IC50 for HDAC1 (unknown origin) to IC50 for HDAC6 (unknown origin)
HCT-116 [3] = experiment: Antiproliferative activity against human HCT116 cells after 72 hrs by MTT assay; type: functional, cell-based; conditions: HCT-116, 72 h
MDA-MB-231 [4] = experiment: Antiproliferative activity against human MDA-MB-231 cells after 72 hrs by MTT assay; type: functional, cell-based; conditions: MDA-MB-231, 72 h
MCF7 [5] = experiment: Antiproliferative activity against human MCF7 cells after 72 hrs by MTT assay; type: functional, cell-based; conditions: MCF7, 72 h
PC-3 [6] = experiment: Antiproliferative activity against human PC3 cells after 72 hrs by MTT assay; type: functional, cell-based; conditions: PC-3, 72 h
HEL 92.1.7 = experiment: cells; type: functional, cell-based; conditions: Homo sapiens, HEL 92.1.7, 72 h
Description: Antiproliferative activity against human HEL 92.1.7 cells after 72 hrs by MTT assay

Jurkat = experiment: Antiproliferative activity against human Jurkat cells after 72 hrs by MTT assay; type: functional, cell-based
[7] = Antiproliferative activity against human AC10 cells after 72 hrs by MTT assay; type: cell-based
[8] = Antiproliferative activity against mouse TAMH cells after 72 hrs by MTT assay; type: cell-based
[9] = Selectivity index, ratio of CC50 for human AC10 cells to IC50 for human MDA-MB-231 cells; type: toxicity; conditions: AC10 cells (CC50) and MDA-MB-231 cells (IC50)
[10] = Selectivity index, ratio of CC50 for mouse TAMH cells to IC50 for human MDA-MB-231 cells; type: toxicity; conditions: TAMH cells (CC50) and MDA-MB-231 cells (IC50)
[11] = Selectivity index, ratio of CC50 for human AC10 cells to IC50 for human MCF7 cells; type: toxicity; conditions: AC10 cells (CC50) and MCF7 cells (IC50)
[12] = Selectivity index, ratio of CC50 for mouse TAMH cells to IC50 for human MCF7 cells; type: toxicity; conditions: TAMH cells (CC50) and MCF7 cells (IC50)
[13] = Selectivity index, ratio of CC50 for human AC10 cells to IC50 for human PC3 cells; type: toxicity; conditions: AC10 cells (CC50) and PC3 cells (IC50)
[14] = Selectivity index, ratio of CC50 for mouse TAMH cells to IC50 for human PC3 cells; type: toxicity; conditions: TAMH cells (CC50) and PC3 cells (IC50)
PC-3 [15] = experiment: Induction of apoptosis in human PC3 cells assessed as live cells at 1.07 uM after 72 hrs by Annexin V-FITC/propidium iodide staining based flow cytometry (reference value: 96.36%); type: functional
PC-3 [16] = experiment: Induction of apoptosis in human PC3 cells assessed as early apoptotic cells at 1.07 uM after 72 hrs by Annexin V-FITC/propidium iodide staining based flow cytometry (reference value: […]%); type: functional
PC-3 [17] = experiment: Induction of apoptosis in human PC3 cells assessed as late apoptotic cells at 1.07 uM after 72 hrs by Annexin V-FITC/propidium iodide staining based flow cytometry (reference value: 1.01%); type: functional
PC-3 [18] = experiment: Induction of apoptosis in human PC3 cells assessed as necrotic cells at 1.07 uM after 72 hrs by Annexin V-FITC/propidium iodide staining based flow cytometry (reference value: 0.66%); type: functional
HCT-116 [19] = experiment: Induction of apoptosis in human HCT116 cells assessed as live cells at 0.99 uM after 72 hrs by Annexin V-FITC/propidium iodide staining based flow cytometry (reference value: 95.7%); type: functional
HCT-116 [20] = experiment: Induction of apoptosis in human HCT116 cells assessed as early apoptotic cells at 0.99 uM after 72 hrs by Annexin V-FITC/propidium iodide staining based flow cytometry (reference value: 1.31%); type: functional
HCT-116 [21] = experiment: Induction of apoptosis in human HCT116 cells assessed as late apoptotic cells at 0.99 uM after 72 hrs by Annexin V-FITC/propidium iodide staining based flow cytometry (reference value: 1.45%); type: functional
HCT-116 [22] = experiment: Induction of apoptosis in human HCT116 cells assessed as necrotic cells at 0.99 uM after 72 hrs by Annexin V-FITC/propidium iodide staining based flow cytometry (reference value: 1.54%); type: functional
MCF7 [23] = experiment: Induction of apoptosis in human MCF7 cells assessed as live cells at 1.64 uM after 72 hrs by Annexin V-FITC/propidium iodide staining based flow cytometry (reference value: 95.05%); type: functional
MCF7 [24] = experiment: Induction of apoptosis in human MCF7 cells assessed as early apoptotic cells at 1.64 uM after 72 hrs by Annexin V-FITC/propidium iodide staining based flow cytometry (reference value: 1.19%); type: functional
MCF7 [25] = experiment: Induction of apoptosis in human MCF7 cells assessed as late apoptotic cells at 1.64 uM after 72 hrs by Annexin V-FITC/propidium iodide staining based flow cytometry (reference value: 1.59%); type: functional
MCF7 [26] = experiment: Induction of apoptosis in human MCF7 cells assessed as necrotic cells at 1.64 uM after 72 hrs by Annexin V-FITC/propidium iodide staining based flow cytometry (reference value: 2.17%); type: functional
MDA-MB-231 [27] = experiment: Induction of apoptosis in human MDA-MB-231 cells assessed as live cells at 0.85 uM after 72 hrs by Annexin V-FITC/propidium iodide staining based flow cytometry (reference value: 90.98%); type: functional
MDA-MB-231 [28] = experiment: Induction of apoptosis in human MDA-MB-231 cells assessed as early apoptotic cells at 0.85 uM after 72 hrs by Annexin V-FITC/propidium iodide staining based flow cytometry (reference value: 1.45%); type: functional
MDA-MB-231 [29] = experiment: Induction of apoptosis in human MDA-MB-231 cells assessed as late apoptotic cells at 0.85 uM after 72 hrs by Annexin V-FITC/propidium iodide staining based flow cytometry (reference value: 2.12%); type: functional
MDA-MB-231 [30] = experiment: Induction of apoptosis in human MDA-MB-231 cells assessed as necrotic cells at 0.85 uM after 72 hrs by Annexin V-FITC/propidium iodide staining based flow cytometry (reference value: 5.45%); type: functional
KMS-12-BM = experiment: Antiproliferative activity against human KMS-12-BM cells after 72 hrs by MTT assay; type: functional, cell-based
[31] = Antiproliferative activity against human XG6 cells after 72 hrs by MTT assay; type: functional, cell-based; conditions: XG6, 72 h
[32] = Selectivity index, ratio of CC50 for human AC10 cells to IC50 for human KMS-12-BM cells; type: toxicity; conditions: AC10 cells (CC50) and KMS-12-BM cells (IC50)
[33] = Selectivity index, ratio of CC50 for mouse TAMH cells to IC50 for human KMS-12-BM cells; type: toxicity; conditions: TAMH cells (CC50) and KMS-12-BM cells (IC50)
[34] = Selectivity index, ratio of CC50 for human AC10 cells to IC50 for human XG6 cells; type: toxicity; conditions: AC10 cells (CC50) and XG6 cells (IC50)
[35] = Selectivity index, ratio of CC50 for mouse TAMH cells to IC50 for human XG6 cells; type: toxicity; conditions: TAMH cells (CC50) and XG6 cells (IC50)
[36] = target: T3, Protein deacetylase HDAC6 (Homo sapiens) (UniProt Q9UBN7); experiment: Inhibition of HDAC6 in human HEL 92.1.7 cells assessed as increase in acetylated tubulin level at 1 uM after 1 hr by immunoblot analysis; type: cell-based
T3 sequence (whole entry): T2 sequence (Q9UBN7 whole entry)

[37] = target: Histone deacetylase 1/2/3 (Homo sapiens) (UniProt Q13547+O15379+Q92769); experiment: Inhibition of HDAC1/HDAC2/HDAC3 in human HEL 92.1.7 cells assessed as increase in acetylated […] level at 1 uM after 1 hr by immunoblot analysis; type: cell-based
[38] = target: T1, Tyrosine-protein kinase JAK2; experiment: Inhibition of JAK2 in human HeLa cells assessed as reduction in STAT5 phosphorylation at 15 to 20 uM after 1 hr by immunoblot analysis; type: cell-based
[39] = target: T1, Tyrosine-protein kinase JAK2; experiment: Inhibition of JAK2 in human HeLa cells assessed as increase in JAK2 phosphorylation at 15 to 20 uM after 1 hr by immunoblot analysis; type: cell-based

Chain of Histone deacetylase 1 (Q13547 whole entry): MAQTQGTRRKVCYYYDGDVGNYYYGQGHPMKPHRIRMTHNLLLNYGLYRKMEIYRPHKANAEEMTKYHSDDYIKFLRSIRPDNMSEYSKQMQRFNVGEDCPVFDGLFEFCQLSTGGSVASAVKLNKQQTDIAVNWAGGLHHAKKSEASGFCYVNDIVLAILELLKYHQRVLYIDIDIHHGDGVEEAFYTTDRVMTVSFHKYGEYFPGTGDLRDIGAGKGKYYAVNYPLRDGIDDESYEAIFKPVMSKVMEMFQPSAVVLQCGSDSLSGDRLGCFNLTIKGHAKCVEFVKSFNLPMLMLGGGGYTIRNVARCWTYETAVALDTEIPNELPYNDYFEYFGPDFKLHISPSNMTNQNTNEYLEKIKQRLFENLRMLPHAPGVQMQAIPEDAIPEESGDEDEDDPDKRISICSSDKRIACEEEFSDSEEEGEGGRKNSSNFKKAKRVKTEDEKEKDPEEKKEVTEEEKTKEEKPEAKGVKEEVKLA
T1 sequence (O60674 whole entry): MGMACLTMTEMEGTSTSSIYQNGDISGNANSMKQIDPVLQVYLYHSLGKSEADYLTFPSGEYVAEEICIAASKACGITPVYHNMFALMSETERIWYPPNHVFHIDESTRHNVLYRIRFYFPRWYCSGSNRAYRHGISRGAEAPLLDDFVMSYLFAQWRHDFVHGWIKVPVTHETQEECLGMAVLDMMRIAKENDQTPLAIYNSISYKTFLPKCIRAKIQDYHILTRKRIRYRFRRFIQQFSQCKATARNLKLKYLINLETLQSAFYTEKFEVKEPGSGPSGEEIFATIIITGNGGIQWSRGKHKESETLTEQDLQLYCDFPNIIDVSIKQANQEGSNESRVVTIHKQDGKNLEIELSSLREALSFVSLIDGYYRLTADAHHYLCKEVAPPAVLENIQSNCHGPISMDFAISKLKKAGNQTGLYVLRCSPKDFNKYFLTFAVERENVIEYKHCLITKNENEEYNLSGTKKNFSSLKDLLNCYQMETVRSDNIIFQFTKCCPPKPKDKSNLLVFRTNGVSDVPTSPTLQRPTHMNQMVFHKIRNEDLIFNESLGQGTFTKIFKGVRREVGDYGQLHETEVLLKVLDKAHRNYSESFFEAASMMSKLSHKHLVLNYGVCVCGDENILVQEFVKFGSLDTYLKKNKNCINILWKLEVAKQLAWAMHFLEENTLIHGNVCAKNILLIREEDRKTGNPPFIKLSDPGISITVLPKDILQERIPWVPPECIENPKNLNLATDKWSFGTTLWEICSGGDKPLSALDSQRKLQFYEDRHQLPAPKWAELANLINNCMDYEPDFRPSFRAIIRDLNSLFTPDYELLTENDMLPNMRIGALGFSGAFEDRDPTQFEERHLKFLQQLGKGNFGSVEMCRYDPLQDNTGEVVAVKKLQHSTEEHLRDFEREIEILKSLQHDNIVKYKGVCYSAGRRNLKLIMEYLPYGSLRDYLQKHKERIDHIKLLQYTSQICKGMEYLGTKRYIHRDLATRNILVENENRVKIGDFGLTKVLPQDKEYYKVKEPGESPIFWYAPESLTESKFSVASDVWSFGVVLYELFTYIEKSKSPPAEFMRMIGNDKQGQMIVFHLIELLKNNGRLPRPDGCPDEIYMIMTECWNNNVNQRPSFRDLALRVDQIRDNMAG

IC50 [1]: 2.6 nM
IC50 (Histone deacetylase 1): 384 nM
IC50 [2]: 4.6 nM
Ratio IC50 (Homo sapiens): 100
IC50 (HCT-116 [3]): 34100 nM
IC50 (MDA-MB-231 [4]): 14600 nM
IC50 (MCF7 [5]): 26700 nM
IC50 (PC-3 [6]): 18600 nM
IC50 (HEL 92.1.7): > 10000 nM
IC50 (Jurkat): > 10000 nM
SMILES: CC(=O)Nc1ccc(-c2ccnc(Nc3cccc(NC(=O)CCCCC(=O)NO)c3)n2)cc1

IC50 [1]: 4.6 nM
IC50 (Histone deacetylase 1): 77 nM
IC50 [2]: 3.1 nM
IC50 (HCT-116 [3]): 990 nM
IC50 (MDA-MB-231 [4]): 910 nM
IC50 (MCF7 [5]): 1610 nM
IC50 (PC-3 [6]): 1020 nM
SMILES: CN1CCN(c2ccc(Nc3nccc(-c4ccc(NC(=O)CCCCCCC(=O)NO)cc4)n3)cc2)CC1
CC50 at 72 h [7]: 3310 nM
CC50 at 72 h [8]: 5440 nM
selectivity ratio [9]: 3.64
selectivity ratio [10]: 5.98
selectivity ratio [11]: 2.06
selectivity ratio [12]: 3.38
selectivity ratio [13]: 3.25
selectivity ratio [14]: 5.33
Activity (PC-3 [15]): 5.35%
Activity (PC-3 [16]): 73.28%
Activity (PC-3 [17]): 19.83%
Activity (PC-3 [18]): 1.54%
Activity (HCT-116 [19]): 83.01%
Activity (HCT-116 [20]): 5.87%
Activity (HCT-116 [21]): 6.43%
Activity (HCT-116 [22]): 4.69%
Activity (MCF7 [23]): 88.21%
Activity (MCF7 [24]): 6.54%
Activity (MCF7 [25]): 3.37%
Activity (MCF7 [26]): 1.88%
Activity (MDA-MB-231 [27]): 13.2%
Activity (MDA-MB-231 [28]): 39.4%
Activity (MDA-MB-231 [29]): 40.56%
Activity (MDA-MB-231 [30]): 6.84%

IC50 [1]: 0.9 nM
IC50 (Histone deacetylase 1): 774 nM
IC50 [2]: 0.1 nM
Ratio IC50 (Homo sapiens): > 7000
IC50 (HCT-116 [3]): 1970 nM
IC50 (MDA-MB-231 [4]): 1540 nM
IC50 (MCF7 [5]): 1090 nM
IC50 (PC-3 [6]): 3840 nM
IC50 (HEL 92.1.7): 2530 nM
inhibition [36]: Active
inhibition [37]: Active
inhibition [38]: Active
inhibition [39]: Active
SMILES: CC(=O)Nc1ccc(-c2ccnc(Nc3ccc(NC(=O)CCCCCCC(=O)NO)cc3)n2)cc1
CC50 at 72 h [7]: 19500 nM
CC50 at 72 h [8]: 12500 nM
IC50 (KMS-12-BM): 1160 nM
IC50 [31]: 3170 nM
selectivity ratio [32]: 16.8
selectivity ratio [33]: 10.8
selectivity ratio [34]: 6.16
selectivity ratio [35]: 3.95
